Test systems include U251 CNS; MDA-MB-435; HT29 colon; ACHN renal; HL-60(TB) leukemia; OVCAR-5 ovarian; A549 NSCLC; NCI-H460 lung; PC-3 prostate; SK-MEL-5 melanoma; SF-268 CNS; NCI-H23 lung.
Common to all, as to test: NCI tumour cell line growth inhibition, 48 h

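How tested: cells in 96-well plates exposed to compound for 48 hours at five concentrations. TGI denotes the concentration required for complete inhibition of growth.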

As to `Cc1ccc(C(=O)N/N=C(\N=Nc2ccc([N+](=O)[O-])cc2)c2ccc(N(CCC#N)CCC#N)cc2C)cc1`, the TGI in the test on U251 CNS is above 100 µM; in the test with MDA-MB-435 it was above 100 µM; in the test on HT29 colon, above 100 µM; with ACHN renal, above 100 µM; in the test with HL-60(TB) leukemia, 65.7 µM; in the test on OVCAR-5 ovarian it was above 100 µM. Further, the TGI in the test with A549 NSCLC, with NCI-H460 lung, in the test with PC-3 prostate, in the test on SK-MEL-5 melanoma, in the test on SF-268 CNS and in the test with NCI-H23 lung was above 100 µM throughout.

Take `CC(=O)c1csc2c1C(=O)c1ccccc1C2=O`: the TGI in the test with U251 CNS came out at 13.9 µM; in the test with MDA-MB-435 it was 3.97 µM; in the test with HT29 colon it was 4.5 µM; in the test with ACHN renal, 4.57 µM; in the test on HL-60(TB) leukemia it was 19.5 µM; in the test with OVCAR-5 ovarian, 5.45 µM. Also, the TGI in the test on A549 NSCLC was 4.06 µM; in the test with NCI-H460 lung, 5 µM; in the test on PC-3 prostate it was above 100 µM; with SK-MEL-5 melanoma it was 0.376 µM; in the test with SF-268 CNS, 12.9 µM; with NCI-H23 lung, 3.59 µM.

Turning to `COc1cc2c(c(OC)c1OC)C(=O)c1c(O)cc(C)c(OC)c1C2=O`, the TGI in the test with U251 CNS, with MDA-MB-435, in the test with HT29 colon, with ACHN renal, in the test on HL-60(TB) leukemia and in the test on OVCAR-5 ovarian was above 100 µM each time. The TGI in the test with A549 NSCLC, with NCI-H460 lung, in the test with PC-3 prostate, in the test on SK-MEL-5 melanoma, with SF-268 CNS and with NCI-H23 lung was above 100 µM each time.

In the case of `COC(=O)c1ccccc1CC1Cc2c(C)ccc(C)c2C1=O` (configuration not stated), the TGI was above 100 µM in the test with U251 CNS; 59.7 µM in the test with MDA-MB-435; 61.6 µM in the test on HT29 colon; above 100 µM with ACHN renal; 55.6 µM with HL-60(TB) leukemia; above 100 µM in the test on OVCAR-5 ovarian. Further, the TGI with A549 NSCLC is above 100 µM; in the test on NCI-H460 lung, above 100 µM; in the test with PC-3 prostate, above 100 µM; in the test with SK-MEL-5 melanoma, 34 µM; in the test on SF-268 CNS, above 100 µM; with NCI-H23 lung, 55.2 µM.

With `C[N+](C)(CCNc1ccc(NCC[N+](C)(C)Cc2ccc([N+](=O)[O-])cc2)c2c1C(=O)c1c(O)ccc(O)c1C2=O)Cc1ccc([N+](=O)[O-])cc1`, the TGI with U251 CNS, in the test on MDA-MB-435, in the test with HT29 colon, with ACHN renal, in the test on HL-60(TB) leukemia and in the test with OVCAR-5 ovarian was above 50 µM in each case. Besides, the TGI in the test on A549 NSCLC, in the test on NCI-H460 lung, in the test with PC-3 prostate, in the test with SK-MEL-5 melanoma, in the test on SF-268 CNS and in the test with NCI-H23 lung was above 50 µM each time.

In the case of `CNC(=O)[C@H](Cc1ccccc1)NC(=O)N(CCC#N)CCN(C(=O)N[C@@H](Cc1ccccc1)C(=O)OC)c1ccccc1`, the TGI in the test on U251 CNS, with MDA-MB-435, in the test with HT29 colon, in the test with ACHN renal, in the test with HL-60(TB) leukemia and in the test on OVCAR-5 ovarian was above 100 µM throughout. For the same compound, the TGI in the test on A549 NSCLC, with NCI-H460 lung, in the test on PC-3 prostate, in the test on SK-MEL-5 melanoma, in the test on SF-268 CNS and in the test with NCI-H23 lung was above 100 µM each time.

As for `CCOC(=O)C(C)c1nc2cc(F)c(F)cc2[nH]c1=O` (configuration not stated), the TGI with U251 CNS, in the test on MDA-MB-435, in the test on HT29 colon, with ACHN renal, in the test with HL-60(TB) leukemia and with OVCAR-5 ovarian was above 100 µM in each case. In addition, the TGI in the test on A549 NSCLC, in the test with NCI-H460 lung, in the test on PC-3 prostate, with SK-MEL-5 melanoma, in the test on SF-268 CNS and with NCI-H23 lung was above 100 µM in each case.

As to `CC(C)=CCC[C@@H](C)C1=C(O)C(N[C@H](C)c2ccccc2)=C(C)C(=O)C1=O`, the TGI is above 100 µM with U251 CNS; above 62.3 µM in the test with MDA-MB-435; 14.1 µM with HT29 colon; 17.1 µM in the test with ACHN renal; 10.8 µM with HL-60(TB) leukemia; above 72.1 µM in the test with OVCAR-5 ovarian. Further, the TGI with A549 NSCLC was 14.7 µM; in the test on NCI-H460 lung, above 40 µM; with PC-3 prostate it was above 100 µM; with SK-MEL-5 melanoma, 13.1 µM; with SF-268 CNS, above 64.3 µM; in the test on NCI-H23 lung, 34.2 µM.

For the compound `COCN1C(=O)[C@@H]2CCCN2C(=O)c2ccc(N)cc21`, the TGI in the test with U251 CNS, in the test with MDA-MB-435, in the test with HT29 colon, in the test on ACHN renal, with HL-60(TB) leukemia and in the test with OVCAR-5 ovarian was above 100 µM each time. The TGI in the test on A549 NSCLC, with NCI-H460 lung, in the test with PC-3 prostate, in the test on SK-MEL-5 melanoma, in the test on SF-268 CNS and in the test with NCI-H23 lung was above 100 µM each time.

With `CCOC(=O)Cc1c(C(=O)OCC)[n+](=O)c2cc(Cl)c(Cl)cc2n1[O-]`, the TGI was determined as 9.67 µM in the test on U251 CNS; 9.03 µM in the test with MDA-MB-435; 5.2 µM with HT29 colon; 3.38 µM in the test with ACHN renal; 5.74 µM with HL-60(TB) leukemia; 5.24 µM in the test on OVCAR-5 ovarian. Besides, the TGI in the test on A549 NSCLC amounted to 3.72 µM; in the test with NCI-H460 lung it was 3.46 µM; in the test on PC-3 prostate, 4.69 µM; in the test on SK-MEL-5 melanoma it was 3.04 µM; with SF-268 CNS, 7.87 µM; in the test on NCI-H23 lung it was 5.49 µM.

Take `Nc1nc(N)c2nc(CN(C=O)c3ccc(C(=O)O)cc3)cnc2n1`: the TGI with U251 CNS, with MDA-MB-435, in the test on HT29 colon, in the test on ACHN renal, with HL-60(TB) leukemia and with OVCAR-5 ovarian was above 100 µM in each case. Further, the TGI in the test with A549 NSCLC, in the test on NCI-H460 lung, with PC-3 prostate, with SK-MEL-5 melanoma, with SF-268 CNS and in the test on NCI-H23 lung was above 100 µM each time.
